Patent US5763404A, “Methods for using LHRH antagonists with low histamine release” (priority 1995, dated 1998)
Starred links: 1 amine or outer side, 2 acyl side, 3 side chain; linkers in the order of their positions; H or OH if unused. Non-standard residues stand in square brackets, D forms with d. Residues, ends and D or L forms follow the SMILES beside them. *: point of attachment. dAla(cis-4-NHCOPyz-cHex) = N[C@H](C[C@H]1CC[C@@H](NC(=O)c2cnccn2)CC1)C(=O)O; X3 = O=C(N[C@H]1CC[C@H](C[C@@H](N[*:1])C(=O)[*:2])CC1)c1cnccn1; dPhe(3,4-Cl2) = N[C@H](Cc1ccc(Cl)c(Cl)c1)C(=O)O; X9 = CN=C(NCCC[C@H](N[*:1])C(=O)[*:2])N(C)C; X5 = O=C([C@H](CCCCNC1CCCC1)N[*:1])[*:2]; dPhe(4-Cl) = N[C@H](Cc1ccc(Cl)cc1)C(=O)O; d2Nal = N[C@H](Cc1ccc2ccccc2c1)C(=O)O; Lys(iPr) = CC(C)NCCCC[C@H](N)C(=O)O; Orn(iPr) = CC(C)NCCC[C@H](N)C(=O)O; d3Pal = N[C@H](Cc1cccnc1)C(=O)O; NMeL = CN[C@@H](CC(C)C)C(=O)O; Nicotinoyl = O=C(c1cccnc1)*; Picolinoyl = O=C(c1ccccn1)*; Me2Gly = CN(C)CC(=O)*

Tested on: anaesthesized rats
Experiment: wheal test, intradermal injection
Assay type: in vivo, rat
Design: Wheal (wheal response): unit not given here
Details: 10 ug peptide intradermally
Method: The antiovulatory activity, AOA, in rats was determined as described by Humphries et al. (12). Antiovulation assays were performed by counting, on estrus, the number of ova shed by 4-day cycling rats after a single sc injection of the LH-RH analogue in corn oil was administered between 12 and 12:30 p.m. on […]. The control rats received 0.3 mL of the vehicle. The wheal test was performed by intradermally injecting 10 ug of peptide in 100 ul of saline into anaesthesized rats, measuring the ideally circular wheal response and calculating the area. The in vitro histamine release test was done as described by Karten et al. (4). A suspension of rat mast cells was added to increasing concentrations of peptide and the mixture was incubated for a few minutes followed by centrifugation to collect the histamine in the supernatant. A PIPES (piperazine-N,N'-bis[2-ethanesulfonic acid]) medium buffered at pH 7.4 containing NaCl 119 mM, KCl 5 mM, PIPES 25 mM, NaOH 40 mM, glucose 5.6 mM, CaCl2 1 mM, and 0.1% bovine serum albumin was used. This was designated as PIPES AC. Peptides were dissolved in double distilled H2 O at a concentration of 2 mg/ml and stored at -20° C. They were thawed just prior to testing, diluted in PIPES AC and prewarmed for five minutes at 37° C. Peptides studied were stable to heating at 56° C. for two hours, and to freezing and thawing.

Structure (SMILES) | Wheal Area [mm^2 /10 μg]
CC(=O)N[C@H](Cc1ccc2ccccc2c1)C(=O)N[C@H](Cc1ccc(Cl)cc1)C(=O)N[C@H](Cc1cccnc1)C(=O)N[C@@H](CO)C(=O)N[C@@H](CCCCNC(=O)c1ccccn1)C(=O)N[C@H](CCCCNC(=O)c1ccccn1)C(=O)N[C@H](C(=O)N[C@@H](CCCCNC(C)C)C(=O)N1CCC[C@H]1C(=O)N[C@H](C)C(N)=O)C(C)C [compound 25934] (Ac-[d2Nal][dPhe(4-Cl)][d3Pal]SK(Picolinoyl)[dK](Picolinoyl)V[Lys(iPr)]P[dA]-NH2) | 97.9 ± 2.9
CC(=O)N[C@H](Cc1ccc2ccccc2c1)C(=O)N[C@H](Cc1ccc(Cl)cc1)C(=O)N[C@H](Cc1cccnc1)C(=O)N[C@@H](CO)C(=O)N[C@@H](CCCCNC(=O)c1ccccn1)C(=O)N[C@H](CCCCNC(=O)c1ccccn1)C(=O)N[C@@H](CC(C)C)C(=O)N[C@@H](CCCNC(C)C)C(=O)N1CCC[C@H]1C(=O)N[C@H](C)C(N)=O [compound 25933] (Ac-[d2Nal][dPhe(4-Cl)][d3Pal]SK(Picolinoyl)[dK](Picolinoyl)L[Orn(iPr)]P[dA]-NH2) | 113.0 ± 0
CC[C@H](C)[C@H](NC(=O)[C@@H](CCCCNC(=O)c1ccccn1)NC(=O)[C@H](CCCCNC(=O)c1ccccn1)NC(=O)[C@H](CO)NC(=O)[C@@H](Cc1cccnc1)NC(=O)[C@@H](Cc1ccc(Cl)cc1)NC(=O)[C@@H](Cc1ccc2ccccc2c1)NC(C)=O)C(=O)N[C@@H](CCCCNC(C)C)C(=O)N1CCC[C@H]1C(=O)N[C@H](C)C(N)=O [compound 26020] (Ac-[d2Nal][dPhe(4-Cl)][d3Pal]SK(Picolinoyl)[dK](Picolinoyl)I[Lys(iPr)]P[dA]-NH2) | 110.7 ± 2.3
CC(=O)N[C@H](Cc1ccc2ccccc2c1)C(=O)N[C@H](Cc1ccc(Cl)cc1)C(=O)N[C@H](Cc1cccnc1)C(=O)N[C@@H](CO)C(=O)N[C@@H](CCCCNC(=O)c1cccnc1)C(=O)N[C@H](CCCCNC(=O)c1cccnc1)C(=O)N(C)[C@@H](CC(C)C)C(=O)N[C@@H](CCCCNC(C)C)C(=O)N1CCC[C@H]1C(=O)N[C@H](C)C(N)=O [compound 26345] (Ac-[d2Nal][dPhe(4-Cl)][d3Pal]SK(Nicotinoyl)[dK](Nicotinoyl)[NMeL][Lys(iPr)]P[dA]-NH2) | 110.5 ± 11.4
CC(=O)N[C@H](Cc1ccc2ccccc2c1)C(=O)N[C@H](Cc1cccnc1)C(=O)N[C@H](Cc1ccc(Cl)cc1)C(=O)N[C@@H](CO)C(=O)N[C@@H](CCCCNC(=O)c1ccccn1)C(=O)N[C@H](CCCCNC(=O)c1ccccn1)C(=O)N[C@@H](CC(C)C)C(=O)N[C@@H](CCCNC(C)C)C(=O)N1CCC[C@H]1C(=O)N[C@H](C)C(N)=O [compound 26364] (Ac-[d2Nal][d3Pal][dPhe(4-Cl)]SK(Picolinoyl)[dK](Picolinoyl)L[Orn(iPr)]P[dA]-NH2) | 116.2 ± 5.5
CC(=O)N[C@H](Cc1ccc2ccccc2c1)C(=O)N[C@H](Cc1ccc(Cl)cc1)C(=O)N[C@H](Cc1cccnc1)C(=O)N[C@@H](CO)C(=O)N[C@@H](Cc1ccc(O)cc1)C(=O)N[C@H](C[C@H]1CC[C@@H](NC(=O)c2cnccn2)CC1)C(=O)N[C@@H](CC(C)C)C(=O)N[C@@H](CCCCNC(C)C)C(=O)N1CCC[C@H]1C(=O)N[C@H](C)C(N)=O [compound 26418] (Ac-[d2Nal][dPhe(4-Cl)][d3Pal]SY[dAla(cis-4-NHCOPyz-cHex)]L[Lys(iPr)]P[dA]-NH2) | 95.0 ± 0
CC(=O)N[C@H](Cc1ccc2ccccc2c1)C(=O)N[C@H](Cc1ccc(Cl)cc1)C(=O)N[C@H](Cc1cccnc1)C(=O)N[C@@H](CO)C(=O)N[C@@H](CCCCNC(=O)c1cccnc1)C(=O)N[C@H](C[C@H]1CC[C@H](NC(=O)c2cnccn2)CC1)C(=O)N[C@@H](CC(C)C)C(=O)N[C@@H](CCCCNC(C)C)C(=O)N1CCC[C@H]1C(=O)N[C@H](C)C(N)=O [compound 25805] (Ac-[d2Nal][dPhe(4-Cl)][d3Pal]SK(Nicotinoyl)[X3]L[Lys(iPr)]P[dA]-NH2) | 129.6 ± 8.8

Same assay, conditions: Table I; 10 ug peptide intradermally

Structure (SMILES) | Wheal [mm^2 /10]
CN=C(NCCC[C@H](NC(=O)[C@H](CO)NC(=O)[C@@H](Cc1cccnc1)NC(=O)[C@@H](Cc1ccc(Cl)cc1)NC(=O)[C@@H](Cc1ccc2ccccc2c1)NC(C)=O)C(=O)N[C@H](CCCCNC(=O)c1cccnc1)C(=O)N[C@@H](CC(C)C)C(=O)N[C@@H](CCCCNC(C)C)C(=O)N1CCC[C@H]1C(=O)N[C@H](C)C(N)=O)N(C)C [compound 24931] (Ac-[d2Nal][dPhe(4-Cl)][d3Pal]S[X9][dK](Nicotinoyl)L[Lys(iPr)]P[dA]-NH2) | 140 ± 7.0
CC(=O)N[C@H](Cc1ccc2ccccc2c1)C(=O)N[C@H](Cc1ccc(Cl)cc1)C(=O)N[C@H](Cc1cccnc1)C(=O)N[C@@H](CO)C(=O)N[C@@H](Cc1c[nH]cn1)C(=O)N[C@H](CCCCNC(=O)c1cccnc1)C(=O)N[C@@H](CC(C)C)C(=O)N[C@@H](CCCNC(=N)N)C(=O)N1CCC[C@H]1C(=O)N[C@H](C)C(N)=O [compound 24545] (Ac-[d2Nal][dPhe(4-Cl)][d3Pal]SH[dK](Nicotinoyl)LRP[dA]-NH2) | 139.7 ± 0
CC(=O)N[C@H](Cc1ccc2ccccc2c1)C(=O)N[C@H](Cc1ccc(Cl)cc1)C(=O)N[C@H](Cc1cccnc1)C(=O)N[C@@H](CO)C(=O)N[C@@H](CCCCNC(=O)c1cccnc1)C(=O)N[C@H](CCCCNC(=O)c1cccnc1)C(=O)N[C@@H](CC(C)C)C(=O)N[C@@H](CCCCNC1CCCC1)C(=O)N1CCC[C@H]1C(=O)N[C@H](C)C(N)=O [compound 25078] (Ac-[d2Nal][dPhe(4-Cl)][d3Pal]SK(Nicotinoyl)[dK](Nicotinoyl)L[X5]P[dA]-NH2) | 147.0
CC(=O)N[C@H](Cc1ccc(Cl)c(Cl)c1)C(=O)N[C@H](Cc1ccc(Cl)cc1)C(=O)N[C@H](Cc1cccnc1)C(=O)N[C@@H](CO)C(=O)N[C@@H](Cc1ccc(O)cc1)C(=O)N[C@H](CCCCNC(=O)c1cccnc1)C(=O)N[C@@H](CC(C)C)C(=O)N[C@@H](CCCCNC(C)C)C(=O)N1CCC[C@H]1C(=O)N[C@H](C)C(N)=O [compound 25338] (Ac-[dPhe(3,4-Cl2)][dPhe(4-Cl)][d3Pal]SY[dK](Nicotinoyl)L[Lys(iPr)]P[dA]-NH2) | 103.9
CC(=O)N[C@H](Cc1ccc2ccccc2c1)C(=O)N[C@H](Cc1ccc(Cl)cc1)C(=O)N[C@H](Cc1cccnc1)C(=O)N[C@@H](CO)C(=O)N[C@@H](Cc1ccc(O)cc1)C(=O)N[C@H](CCCCNC(=O)c1cccnc1)C(=O)N[C@@H](CC(C)C)C(=O)N[C@@H](CCCNC(C)C)C(=O)N1CCC[C@H]1C(=O)N[C@H](C)C(N)=O [compound 24756] (Ac-[d2Nal][dPhe(4-Cl)][d3Pal]SY[dK](Nicotinoyl)L[Orn(iPr)]P[dA]-NH2) | 92.2 ± 2.9
CC(=O)N[C@H](Cc1ccc2ccccc2c1)C(=O)N[C@H](Cc1ccc(Cl)cc1)C(=O)N[C@H](Cc1cccnc1)C(=O)N[C@@H](CO)C(=O)N[C@@H](Cc1c[nH]cn1)C(=O)N[C@H](CCCCNC(=O)c1cccnc1)C(=O)N[C@@H](CC(C)C)C(=O)N[C@@H](CCCCNC(=O)c1cccnc1)C(=O)N1CCC[C@H]1C(=O)N[C@H](C)C(N)=O [compound 24745] (Ac-[d2Nal][dPhe(4-Cl)][d3Pal]SH[dK](Nicotinoyl)LK(Nicotinoyl)P[dA]-NH2) | 136.3 ± 6.8
CC(=O)N[C@H](Cc1ccc2ccccc2c1)C(=O)N[C@H](Cc1ccc(Cl)cc1)C(=O)N[C@H](Cc1cccnc1)C(=O)N[C@@H](CO)C(=O)N[C@@H](CCCCNC(=O)c1cccnc1)C(=O)N[C@H](CCCCNC(=O)c1cccnc1)C(=O)N[C@@H](CC(C)C)C(=O)N[C@@H](CCCNC(C)C)C(=O)N1CCC[C@H]1C(=O)N[C@H](C)C(N)=O [compound 24933] (Ac-[d2Nal][dPhe(4-Cl)][d3Pal]SK(Nicotinoyl)[dK](Nicotinoyl)L[Orn(iPr)]P[dA]-NH2) | 136.0
CC(=O)N[C@H](Cc1ccc2ccccc2c1)C(=O)N[C@H](Cc1ccc(Cl)cc1)C(=O)N[C@H](Cc1cccnc1)C(=O)N[C@@H](CO)C(=O)N[C@@H](Cc1ccc(O)cc1)C(=O)N[C@H](CCCCNC(=O)c1cccnc1)C(=O)N[C@@H](CC(C)C)C(=O)N[C@@H](CCCCNC(C)C)C(=O)N1CCC[C@H]1C(=O)N[C@H](C)C(N)=O [compound 24315] (Ac-[d2Nal][dPhe(4-Cl)][d3Pal]SY[dK](Nicotinoyl)L[Lys(iPr)]P[dA]-NH2) | 79.0 ± 9.2
CC(=O)N[C@H](Cc1ccc2ccccc2c1)C(=O)N[C@H](Cc1ccc(Cl)cc1)C(=O)N[C@H](Cc1cccnc1)C(=O)N[C@@H](CO)C(=O)N[C@@H](CCCCNC(=O)CN(C)C)C(=O)N[C@H](CCCCNC(=O)c1cccnc1)C(=O)N[C@@H](CC(C)C)C(=O)N[C@@H](CCCCNC(C)C)C(=O)N1CCC[C@H]1C(=O)N[C@H](C)C(N)=O [compound 25509] (Ac-[d2Nal][dPhe(4-Cl)][d3Pal]SK(Me2Gly)[dK](Nicotinoyl)L[Lys(iPr)]P[dA]-NH2) | 110 ± 3

Same assay, conditions: Table XIV and text, unit not given

Structure (SMILES) | Wheal (wheal response)
CC(=O)N[C@H](Cc1ccc2ccccc2c1)C(=O)N[C@H](Cc1ccc(Cl)cc1)C(=O)N[C@H](Cc1cccnc1)C(=O)N[C@@H](CO)C(=O)N[C@@H](CCCCNC(=O)c1ccccn1)C(=O)N[C@H](CCCCNC(=O)c1ccccn1)C(=O)N[C@@H](CC(C)C)C(=O)N[C@@H](CCCNC(C)C)C(=O)N1CCC[C@H]1C(=O)N[C@H](C)C(N)=O [compound 25933] (Ac-[d2Nal][dPhe(4-Cl)][d3Pal]SK(Picolinoyl)[dK](Picolinoyl)L[Orn(iPr)]P[dA]-NH2) | 113.0 ± 0
CC(=O)N[C@H](Cc1ccc2ccccc2c1)C(=O)N[C@H](Cc1ccc(Cl)cc1)C(=O)N[C@H](Cc1cccnc1)C(=O)N[C@@H](CO)C(=O)N[C@@H](CCCCNC(=O)c1ccccn1)C(=O)N[C@H](C[C@H]1CC[C@@H](NC(=O)c2cnccn2)CC1)C(=O)N[C@@H](CC(C)C)C(=O)N[C@@H](CCCCNC(C)C)C(=O)N1CCC[C@H]1C(=O)N[C@H](C)C(N)=O [compound 25897] (Ac-[d2Nal][dPhe(4-Cl)][d3Pal]SK(Picolinoyl)[dAla(cis-4-NHCOPyz-cHex)]L[Lys(iPr)]P[dA]-NH2) | 122.8
